Where two headings read alike, the source gives them in different places.
Tests used:
[1] = Observed pharmacokinetics in rats after oral SPC (previous study); type: in vivo, rat; settings: p.o. SPC
[2] = Verification pharmacokinetic experiment in rats, SPC 60 g crude drug/kg by gavage, UFLC-MS/MS, DAS 2.0; type: in vivo, rat
Method: To validate the accuracy of PBPK models in predicting the pharmacokinetics of SPC constituents at different oral doses, the pharmacokinetic behavior of these four constituents from SPC in rats were analyzed by UFLC-MS/MS. The parameters were calculated using Drug and Statistics Software version 2.0, and then these validated values (Val.) were used to check the accuracy of the Calc. values and evaluated by FE.
The pharmacokinetic fitting results of rats given 60 g crude drug/kg body weight of SPC by gavage were verified by experiments. The verification experiment was conducted according to our previous pharmacokinetic study. In brief, 1.5 mL suspension of SPC was given to rats by oral administration; 300 μL blood samples from orbital venous at 0.083, 0.25, 0.5, 0.75, 1.0, 1.5, 2, 3, 4, 6, 8, and 12 h were collected and pretreated with heparin sodium. After centrifugation, the plasma samples were obtained and further processed for subsequent detection by UFLC-MS/MS; the detailed analysis method is shown in Supplementary Data (Table S1 and Figure S1). The concentration-time curve of each compound was gained, and the pharmacokinetic parameters were calculated using DAS 2.0 software (DAS 2.0, Mathematical Pharmacology Professional Committee of China, Shanghai, China). The results of these four constituents were compared with the PBPK parameters predicted in rats at an oral dose of 60 g crude drug/kg body weight of SPC.
1. The instrument and analytical conditions of UFLC-MS/MS method
4 constituents (1. 3′-methoxydadizein; 2. 8-O-methylretusin; 3. Daidzin; and 4. […]
The internal standard (IS) carbamazepine with a purity of more than 99 % was purchased from Beijing JK-chemical technology Co. Ltd., (Beijing China). Heparin sodium was gained from Tianjin biochemical pharmaceutical Co. Ltd, (Tianjin, China).
Ammonium acetate of HPLC grade, methanol and acetonitrile of LC-MS grade were purchased from Sigma (LOT# BCBK6717V, sigma-aldrich, Co., MO, USA) and Fisher (Fisher Corp., Fair lawn, NJ, USA) respectively. The experimental ultrapure water was prepared by Millipore Milli-Q ultrapure water preparation apparatus (Millipore Sigma, […]
The detailed information of Shimadzu UFLC-MS/MS 8050 liquid mass system equipped with Nexera X2UFLC liquid chromatography system and 8050 triple quadrupole mass spectrometers with an electrospray ionization source were listed in our previous study. The supporting LabSolution workstation was used for data […]
The separation without superposition of analytes in plasma sample was achieved on a Kinetex® C18 chromatographic column (100mm×2.1mm i.d.; 2.6 μm, 100 Å; Phenomenex, Inc., Torrance, CA, USA) assembled with a Phenomenex p/n AJ0-9000 C18 protection column. The mobile phase was consisted of 0.5 mM ammonium acetate in water (A) and ACN (B). The gradient elution program was selected ultimately as […]
95 % B (18.7–22 min). Column and automatic sampler temperature were set as 30 °C and 4 °C respectively. The flow rate of mobile phase was 0.35 mL/min while sample injection volume was 4 μL.
Multiple reaction monitoring (MRM) of positive or negative modes were used as scanning modes for the analytes and IS. Other essential parameters were successively optimized as: Nebulizing gas flow, 3 L/min; Heating gas flow, 10 L/min; Drying gas flow, 10 L/min; Interface temperature, 300 °C; DL temperature, 250 °C; Interface and detector voltage were each set as 3.0 kV and 1.8 kV. The detection parameters such as retention time (RT), dwell time (DT), quadrupole 1 pre-rod bias (Q1), collision energy […]
Table S1 The retention time and ion equivalent parameters of 4 constituents in rat […]
Constituents Retention Precursor Precursor Product time Pre energy Pre time (min) ion species ion ion (msec) Bias (V) Bias

[3] = system: Caco-2 cell monolayer; design: method as in PMID 36680806, PMID 26501241; settings: Caco-2 cell monolayer model; cited from earlier work
[4] = design: method as in PMID 34303214; settings: rats, p.o. SPC 30 g crude drug/kg; doses of 1-4: 0.062, 0.11, 0.71, 1.31 mg/kg; cited from earlier work
[5] = compartment model parameters, DAS 2.0, rats p.o. SPC 60 g crude drug/kg, Mean, 5 rats
[6] = statistical moment parameters, DAS 2.0, rats p.o. SPC 60 g crude drug/kg, Mean, 5 rats
[7] = statistical moment parameters, DAS 2.0, rats p.o. SPC 60 g crude drug/kg, Mean, 5 rats, in µg·h²/mL

What does the source list for COc1cc(-c2coc3cc(O)ccc3c2=O)ccc1O [Constituent 1, 3′-methoxydadizein]?
time of slight secondary absorption peak [1]: 6 h; K10 [2, 5]: 0.474 h⁻¹; K12 [2, 5]: 0.207 h⁻¹; K21 [2, 5]: 0.135 h⁻¹; Ka [2, 5]: 4.239 h⁻¹; Tlag [2, 5]: 0 h; V1/F [2, 5]: 12.821 L/kg; t1/2Ka [2, 5]: 0.185 h; t1/2α [2, 5]: 1.009 h; concentration at 0.083 h ([2]; rat, plasma, oral, time 0.083 h, rats p.o. SPC 60 g crude drug/kg, doses of 1-4: 0.124, 0.22, 1.4, 2.62 mg/kg, 5 rats): 2.98 ng/mL; concentration at 0.25 h ([2]; rat, plasma, oral, time 0.25 h, rats p.o. SPC 60 g crude drug/kg, doses of 1-4: 0.124, 0.22, 1.4, 2.62 mg/kg, 5 rats): 5.52 ng/mL; concentration at 0.5 h ([2]; rat, plasma, oral, time 0.5 h, rats p.o. SPC 60 g crude drug/kg, doses of 1-4: 0.124, 0.22, 1.4, 2.62 mg/kg, 5 rats): 7.09 ng/mL; concentration at 0.75 h ([2]; rat, plasma, oral, time 0.75 h, rats p.o. SPC 60 g crude drug/kg, doses of 1-4: 0.124, 0.22, 1.4, 2.62 mg/kg, 5 rats): 6.16 ng/mL; concentration at 1 h ([2]; rat, plasma, oral, time 1 h, rats p.o. SPC 60 g crude drug/kg, doses of 1-4: 0.124, 0.22, 1.4, 2.62 mg/kg, 5 rats): 5.77 ng/mL; concentration at 1.5 h ([2]; rat, plasma, oral, time 1.5 h, rats p.o. SPC 60 g crude drug/kg, doses of 1-4: 0.124, 0.22, 1.4, 2.62 mg/kg, 5 rats): 5.11 ng/mL; concentration at 2 h ([2]; rat, plasma, oral, time 2 h, rats p.o. SPC 60 g crude drug/kg, doses of 1-4: 0.124, 0.22, 1.4, 2.62 mg/kg, 5 rats): 2.89 ng/mL; concentration at 3 h ([2]; rat, plasma, oral, time 3 h, rats p.o. SPC 60 g crude drug/kg, doses of 1-4: 0.124, 0.22, 1.4, 2.62 mg/kg, 5 rats): 1.75 ng/mL; concentration at 4 h ([2]; rat, plasma, oral, time 4 h, rats p.o. SPC 60 g crude drug/kg, doses of 1-4: 0.124, 0.22, 1.4, 2.62 mg/kg, 5 rats): 1.46 ng/mL; concentration at 6 h ([2]; rat, plasma, oral, time 6 h, rats p.o. SPC 60 g crude drug/kg, doses of 1-4: 0.124, 0.22, 1.4, 2.62 mg/kg, 5 rats): 0.553 ng/mL; concentration at 8 h ([2]; rat, plasma, oral, time 8 h, rats p.o. SPC 60 g crude drug/kg, doses of 1-4: 0.124, 0.22, 1.4, 2.62 mg/kg, 5 rats): 0.582 ng/mL; concentration at 12 h ([2]; rat, plasma, oral, time 12 h, rats p.o. SPC 60 g crude drug/kg, doses of 1-4: 0.124, 0.22, 1.4, 2.62 mg/kg, 5 rats): 0.197 ng/mL; AUC(0-t) ([2]; rat, plasma, po, 0.124 mg/kg, compartment model parameters, DAS 2.0, rats p.o. SPC 60 g crude drug/kg, Mean, 5 rats, read-out: AUC(0-t)): 19.1 ng·h/mL; AUC(0-inf) ([2]; rat, plasma, po, 0.124 mg/kg, compartment model parameters, DAS 2.0, rats p.o. SPC 60 g crude drug/kg, Mean, 5 rats, read-out: AUC(0-∞)): 20.5 ng·h/mL; CL/F ([2]; rat, plasma, po, 0.124 mg/kg, compartment model parameters, DAS 2.0, rats p.o. SPC 60 g crude drug/kg, Mean, 5 rats, read-out: CL/F (converted)): 101 mL/min/kg; half-life ([2]; rat, plasma, po, 0.124 mg/kg, compartment model parameters, DAS 2.0, rats p.o. SPC 60 g crude drug/kg, Mean, 5 rats, read-out: t1/2β (converted)): 14.4 h; AUC(0-t) ([2]; rat, plasma, po, 0.124 mg/kg, statistical moment parameters, DAS 2.0, rats p.o. SPC 60 g crude drug/kg, Mean, 5 rats, read-out: AUC(0-t)): 19.1 ng·h/mL; AUC(0-inf) ([2]; rat, plasma, po, 0.124 mg/kg, statistical moment parameters, DAS 2.0, rats p.o. SPC 60 g crude drug/kg, Mean, 5 rats, read-out: AUC(0-∞)): 20 ng·h/mL; CL/F ([2]; rat, plasma, po, 0.124 mg/kg, statistical moment parameters, DAS 2.0, rats p.o. SPC 60 g crude drug/kg, Mean, 5 rats, read-out: CLz/F (converted)): 103 mL/min/kg; Cmax ([2]; rat, plasma, po, 0.124 mg/kg, statistical moment parameters, DAS 2.0, rats p.o. SPC 60 g crude drug/kg, Mean, 5 rats, read-out: Cmax): 7.18 ng/mL; MRT last ([2]; rat, plasma, po, 0.124 mg/kg, statistical moment parameters, DAS 2.0, rats p.o. SPC 60 g crude drug/kg, Mean, 5 rats, read-out: MRT(0-t)): 2.77 h; MRT inf ([2]; rat, plasma, po, 0.124 mg/kg, statistical moment parameters, DAS 2.0, rats p.o. SPC 60 g crude drug/kg, Mean, 5 rats, read-out: MRT(0-∞)): 3.44 h; Tmax ([2]; rat, plasma, po, 0.124 mg/kg, statistical moment parameters, DAS 2.0, rats p.o. SPC 60 g crude drug/kg, Mean, 5 rats, read-out: Tmax): 0.55 h; Vd/F ([2]; rat, plasma, po, 0.124 mg/kg, statistical moment parameters, DAS 2.0, rats p.o. SPC 60 g crude drug/kg, Mean, 5 rats, read-out: Vz/F): 25.9 L/kg; half-life ([2]; rat, plasma, po, 0.124 mg/kg, statistical moment parameters, DAS 2.0, rats p.o. SPC 60 g crude drug/kg, Mean, 5 rats, read-out: t1/2z (converted)): 2.9 h; AUC(0-t) ([2]; rat, plasma, po, 2.62 mg/kg, rats, p.o. SPC 60 g crude drug/kg, doses of 1-4: 0.124, 0.22, 1.42, 2.62 mg/kg, n = 5, read-out: AUC0→t Val.): 19.1 ng·h/mL; AUC(0-inf) ([2]; rat, plasma, po, 2.62 mg/kg, rats, p.o. SPC 60 g crude drug/kg, doses of 1-4: 0.124, 0.22, 1.42, 2.62 mg/kg, n = 5, read-out: AUC0→∞ Val.): 20 ng·h/mL; Cmax ([2]; rat, plasma, po, 2.62 mg/kg, rats, p.o. SPC 60 g crude drug/kg, doses of 1-4: 0.124, 0.22, 1.42, 2.62 mg/kg, n = 5, read-out: Cmax Val.): 7.2 ng/mL; Tmax ([2]; rat, plasma, po, rats, p.o. SPC 60 g crude drug/kg, doses of 1-4: 0.124, 0.22, 1.42, 2.62 mg/kg, n = 5, read-out: Tmax Val.): 0.55 h; Cz [2, 6]: 0.202 µg/L; VRT(0-t) [2, 6]: 7.148 h^2; VRT(0-∞) [2, 6]: 16.239 h^2; elimination rate constant [2, 6]: 0.247 h⁻¹; AUMC(0-t) [2, 7]: 52.953; AUMC(0-∞) [2, 7]: 68.893; Papp [3]: 2.2 ×10⁻⁶ cm/s; AUC0→t Obs. [4]: 8.4 ng·h/mL; AUC0→∞ Obs. [4]: 9 ng·h/mL; Cmax Obs. [4]: 3.9 ng/mL; Tmax Obs. [4]: 0.42 h

Reference: paper PMC11677527, “Predicting Pharmacokinetics of Active Constituents in Spatholobi caulis by Using Physiologically Based Pharmacokinetic Models” (Pharmaceuticals, 2024)
